Key:
[1] = Absorption rate of ibuprofen in mice (tail vein samples); assay type: in vivo; settings: mouse, blood (tail vein samples), 25 mg/kg
Source text: Additional experiments to test the absorption rate of the different omega-3 oil-containing pharmaceutical compositions described herein was illustrated in a mouse model.

[2] = system: stomach lesions in fasted mice; settings: 10 mg/kg ketoprofen, one hour after administration, n = 8
[3] = system: carrageenin-induced ear swelling mouse model; experiment: Carrageenin-induced ear swelling mouse model of inflammation; settings: mice, ketoprofen 2 mg/kg, ear volume vs control mice, eight mice per treatment

SMILES | Cmax [1] | Average Lesions Score/Stomach [2] | % of Inhibition of Inflammation [3]
CC(C)Cc1ccc(C(C)C(=O)O)cc1 (stereo not drawn) [Ibuprofen in saline, ibuprofen] | 10000 ng/mL |  | 
CC(C(=O)O)c1cccc(C(=O)c2ccccc2)c1 (stereo not drawn) [Ketoprofen in Saline, ketoprofen] |  | 33 | 45%
